# Data published in PMC12714101, “CD160-Derived Peptide as a Bidirectional Inhibitor Toward Immune Checkpoints BTLA/HVEM and HVEM/LIGHT” (Journal of Medicinal Chemistry, 2025).
# “And” between values parts separate entries of the source, which are not always exact repeats. Equal values may be shown once. Where a SMILES comes first, the peptide text is derived from it.
# Assays:
# [1] = NMR in PBS-buffered aqueous solution (aggregation); assay type: physicochemical; conditions: 298 K, 2 mM sample
# Protocol: First, circular dichroism (CD) spectra were recorded for this peptide in H2O and phosphate-buffered saline (PBS). In water, the peptide adopts a disordered structure, characterized by a minimum at 197 nm. In contrast, in PBS, it undergoes conformational ordering, forming a β-strand structure with a minimum at 214 nm and maximum at 197 nm. […] To further investigate the peptide’s structure, nuclear magnetic resonance (NMR) spectra were acquired in both buffer-free aqueous solution and PBS-buffered aqueous solution. […] Narrow amide proton chemical shift dispersion (ΔδHN = 0.7 ppm), absence of medium- and long-range nuclear Overhauser effects (NOEs), and ^3JNα coupling constants indicate a lack of well-defined secondary structure (Figures S9 and S10). […] Molecular dynamics simulations with NOE-derived distance restraints generated an ensemble of structures showing high conformational diversity. […]
# NMR spectra were acquired at 298 K on Bruker spectrometers (^1H 700.55 MHz, 16.4 T and 500.13 MHz, 11.7 T). […] The ^1H–^13C HSQC spectrum was recorded at the natural abundance of the ^13C isotope. […] Spectra were processed and analyzed, respectively, with Topspin 4.4.1 (Bruker, Ettlingen, Germany) and NMRFAM-Sparky software packages. […]
# HVEM/LIGHT interaction = assay: Cellular reporter assay, HVEM reporter cells (JE6.1-NF-κB::eGFP) stimulated with TCS LIGHT; assay type: cell-based, human; conditions: 24 h coculture, three experiments
# Protocol: These findings prompted us to investigate whether the peptide is also capable of inhibiting the binding of HVEM to its ligand–the LIGHT protein. Accordingly, ELISA and cell-based assays were conducted under the same conditions as those used for the BTLA/HVEM complex, with the exception that LIGHT was used instead of BTLA.
# (§1) Cellular studies were performed in the same procedure as we described previously for gD- and BTLA-derived peptides. , The peptides were dissolved in the medium, and their final concentrations in wells were 150, 50, and 16,7 μM. Briefly, reporter cells expressing HVEM (JE6.1-NF-κB::eGFP) (5 × 10^4 cells/well) were preincubated with peptides for 30 min in a 96-well flat-bottom plate. Subsequently, the second cell line expressing BTLA (TCS BTLA) or LIGHT (TCS LIGHT) (2 × 10^4 cells/well) was added and cocultured for 24 h at 37 °C in an atmosphere of 5% CO2. Next, an APC-conjugated mCD45.2 antibody to exclude TCS from the reporter cells was added. The expression of the reporter gene (eGFP) was measured via flow cytometry using a CytoFLEX flow cytometer (Beckman Coulter Inc., Brea, CA, USA), and the results were analyzed using FlowJo v10.10 (FlowJo LLC, Ashland, OR, USA). The data were analyzed using GraphPad Prism 8 software (San Diego, CA, USA).
# BTLA/HVEM interaction = assay: Cellular reporter assay, HVEM reporter cells (JE6.1-NF-κB::eGFP) stimulated with TCS-BTLA; assay type: cell-based, human; conditions: 30 min preincubation, 24 h coculture, NF-κB::eGFP by flow cytometry, mean of four independent experiments in duplicate
# Protocol: In the next step of the study, the inhibitory properties of the designed peptides were evaluated using previously described cell-based assays. The experiment utilized reporter cells expressing HVEM (JE6.1-NF-κB::eGFP) and T cell stimulator cells expressing BTLA (TCS-BTLA). Activation of the reporter cells by TCS followed a two-signal model. The first is generated through the interaction between the T cell receptor–cluster of differentiation 3 (TCR–CD3) complex on the surface of the reporter cells and a membrane-bound antihuman CD3 single-chain antibody fragment (mAb aCD3) expressed on the TCS cells. The second signal is provided by the binding of HVEM and BTLA, which in this assay results in a strong costimulatory signal via HVEM. Activation of the reporter cells leads to the expression of nuclear factor kappa light chain enhancer of activated B cells (NF-κB), which correlates with the level of enhanced green fluorescent protein (eGFP), measured by flow cytometry. In the absence of peptides, NF-κB expression is normalized to 100%. Disruption of the BTLA/HVEM interaction by peptides results in a concentration-dependent decrease in NF-κB levels. In this study, HVEM-expressing reporter cells were stimulated with BTLA-expressing TCS cells in the presence or absence of tested peptides at three different concentrations.
# as §1
smiles,measurement,setting,value
"CC[C@@H]1NC(=O)[C@@H](NC(=O)[C@H](CCC(N)=O)NC(=O)[C@H](Cc2ccc(O)cc2)NC(C)=O)CSSC[C@@H](C(=O)N[C@@H](Cc2c[nH]cn2)C(=O)N[C@@H](Cc2ccccc2)C(=O)N[C@@H](Cc2ccccc2)C(N)=O)NC(=O)[C@H](CCC(N)=O)NC(=O)[C@H](CC(C)C)NC(=O)[C@H](CCCNC(=N)N)NC(=O)[C@H]([C@@H](C)CC)NC(=O)CNC(=O)[C@H](CO)NC(=O)[C@H](CCCCN)NC(=O)[C@H](CCC(N)=O)NC(=O)[C@H](CO)NC(=O)[C@H](CCCNC(=N)N)NC(=O)[C@H](C)NC1=O [A5, CD160(110–128) ^(C113X,G125C)] (HELM PEPTIDE1{[ac].Y.Q.C.[Abu].A.R.S.Q.K.S.G.I.R.L.Q.C.H.F.F.[am]}$PEPTIDE1,PEPTIDE1,4:R3-17:R3$$$V2.0)",Aggregation in PBS (NMR signal broadening),[1],peptide aggregation
same,"Inhibition of NF-κB activation, HVEM/LIGHT cell-based assay, 16.67 μM",HVEM/LIGHT interaction; peptide 16.67 μM,13%
same,"Inhibition of NF-κB activation, HVEM/LIGHT cell-based assay, 50 μM",HVEM/LIGHT interaction; peptide 50 μM,34%
same,"Inhibition of NF-κB activation, HVEM/LIGHT cell-based assay, 150 μM",HVEM/LIGHT interaction; peptide 150 μM,72%
same,Inhibition - Cellular assay 16.67 µM,BTLA/HVEM interaction; peptide 16.67 μM,~14% and 14.03%
same,Inhibition - Cellular assay 50 µM,BTLA/HVEM interaction; peptide 50 μM,59.04%
same,Inhibition - Cellular assay 150 µM,BTLA/HVEM interaction; peptide 150 μM,80.42%
